# Several values for one entry are separate records, joined by “and”; a condition that tells them apart may be missing. Equal values may be shown once. Read-outs that look alike come from different tables or passages of the source.
# Assays:
# [1] = system: EpiAirway™ (AIR-100) tissues; conditions: for TEER Significant?: alpha 0.05
# [2] = system: EpiAirway™ (AIR-100) tissues
# [3] = system: EpiAirway™ (AIR-100) tissues; conditions: H&E staining after 24-hour recovery
# [4] = post 24 hr recovery: Untreated Control vs treatment
# [5] = pre exposure vs post 24 hr recovery, same treatment
substance,measurement,setting,value
Triton X-100 [0.5% Triton],Effect on barrier function / TEER,[1]; 24-hour recovery,dropped completely
same,24 hr TEER Mean,"[1]; group mean n=3 tissues, after 24-hour recovery",8.6 Ohms*cm2
same,Pre-Exposure TEER Mean,"[1]; group mean n=3 tissues, before exposure",749.8 Ohms*cm2
same,24 hr TEER Ohms*cm2,"[1]; per tissue, after 24-hour recovery",9.0 Ohms*cm2 and 8.4 Ohms*cm2
same,Pre-Exposure TEER Ohms*cm2,"[1]; per tissue, before exposure",672.0 Ohms*cm2 and 832.8 Ohms*cm2 and 744.6 Ohms*cm2
same,"TEER Mean Diff., Tukey's multiple comparisons test",[1]; [4],628.6
same,TEER Significant?,[1]; [4],Yes
same,"TEER Mean Diff., Tukey's multiple comparisons test",[1]; [5],741.2
same,TEER Significant?,[1]; [5],Yes
same,"TEER statistics test details: group mean, pre exposure","[1]; pre exposure, N=3",749.8
same,24 hr TEER,"[1]; raw reading per tissue after 24-hour recovery, background 5 not subtracted",20 and 19
same,Pre-Exposure TEER,"[1]; raw reading per tissue before exposure, background 5 not subtracted",1125 and 1393 and 1246
same,Effect on tissue viability,"[2]; LDH assay, 24-hour time point",complete loss of viability
same,"LDH viability Mean Diff., Tukey's multiple comparisons test",[2]; Untreated Control vs treatment,100
same,LDH viability Significant?,"[2]; Untreated Control vs treatment, alpha 0.05",Yes
same,LDH Group Mean OD,"[2]; group mean n=3 tissues, 24-hour time point",1.125
same,% Viability Mean,"[2]; group mean n=3 tissues, LDH assay, 24-hour time point",0.0%
same,LDH Mean OD,"[2]; mean of duplicates per tissue, 24-hour time point",1.181 and 1.062 and 1.132
same,LDH statistics test details: group mean,"[2]; percent viability, 24-hour time point",−0.01667
same,Tissue morphology,[3],significant tissue disruption
